In patent US20250134862A1, “PROCESS FOR TREATING LIVESTOCK EXPOSED TO TOXIC FORAGE USING MELATONIN COMPOSITIONS” (BOARD OF TRUSTEES OF THE UNIVERSITY OF ARKANSAS, priority 2022, published 2025):

Legend:
[1] = test system: steer calves of pregnant beef cattle grazing toxic, endophyte-infected tall fescue (E+); experiment: Example 3: body weight of steer calves born to dams grazing E+ fescue with melatonin supplementation; format: in vivo; details: for Calf weight: raw group average
Description: (§1) The same artificially inseminated cows were used in Example 3 that were used Example 2. As outlined above in Example 2, forty-nine (n=49) multiparous crossbred beef cows were artificially inseminated with sex-sorted semen (Y chromosome-bearing sperm) from a single Angus sire and maintained on pastures free from E+ fescue prior to the start of the treatment period. Pregnant cows were stratified into three treatment groups based on body weight, with two replications per treatment: non-toxic, novel endophyte-infected (NE+) tall fescue without melatonin supplementation (NE+/NM; n=15), E+ fescue with melatonin supplementation (E+/M; n=16), and E+ fescue without melatonin supplementation (E+/NM; n=18). The treatment period was over 70 d between May and July (d 147±1 to 217-1 of gestation). A commercially available feed was mixed with melatonin (100 μg/kg BW) or without melatonin and hand-fed to each cow daily. At the conclusion of the treatment period (56±18 d before parturition), cattle were moved to a single group and maintained on pastures free from E+ fescue, where they remained through weaning.
After birth, calves were castrated within 48-72 hours. Dams and steer calves were weighed every 28 days relative to calving (FIG. 31): i.e., at d 0, 28, 56, 84, 112, 140, and 168 (d 0=calving, <24 h). Table 3 depicts calf weight at preweaning, postweaning, and feedlot for NE+/NM, E/+M, and E/+NM (respectively, green, yellow, and red in FIG. 34B). Four-hour milk yields on d 28±3 and d 56±3 were used to estimate daily milk volume and weight. Protein, lactose, and triglycerides were evaluated in milk samples collected on d 28 and d 56.
(§2) Dam body weight (FIG. 32) and calf body weight (FIG. 34) were analyzed, using the MIXED procedure of SAS specific for repeated measures with treatment and time as fixed effects and replicate as a random effect. Dam prolactin, calf birth weight (FIG. 33), milk volume (FIGS. 35 and 37), and milk weight (FIGS. 36 and 38) were analyzed using the MIXED procedure of SAS with treatment as a fixed effect and replicate as a random effect.

[2] = test system: pregnant heifers consuming endophyte-infected (E+) tall fescue seed and their offspring; experiment: Example 1: gestation length and body weights of calves born to dams fed tall fescue seed with or without melatonin; format: in vivo, cattle
Description: Fifty-seven (n=57) pregnant heifers artificially inseminated with sex-sorted semen (X chromosome-bearing sperm) from a single Angus sire were maintained at the Savoy Unit at the University of Arkansas on Bermuda grass pastures and supplemented as needed during the first 4-5 months of gestation. After that time, pregnant heifers were housed in a barn at the Savoy Unit (FIG. 1) having a controlled feeding system (SmartFeed Pro, C-Lock, Inc.). The controlled feeding system used radio frequency identification to control feed mixtures and intake for heifers.
(§3) After the training period, the heifers started a 70-day feeding trial (FIG. 2) to evaluate the influence of toxic fescue and melatonin on the developing fetus. To mimic the natural peak of ergot alkaloids in Kentucky 31 fescue, toxic fescue seed was fed with or without melatonin during the 70-day period between May and July. The feed trial period diet consisted of an ad libitum Bermuda grass hay and one of four (4) feed rations. The trial utilized a 2×2 factorial treatment arrangement (E− without melatonin, E−/NM; E− with melatonin, E−/M; E+ without melatonin, E+/NM; or E+ with melatonin, E+/M; melatonin dose: 100 μg/kg of BW) for a 70-d period between May and July starting at 160±13 days of gestation to mimic ergot alkaloid concentrations (ergot alkaloid dose: 13 μg/kg of BW) in a grazing scenario (FIG. 2). Each of the four feed ration treatments was represented in each of the two pens/groups of cattle (FIG. 1). All diets contained corn gluten and molasses and were fed using SmartFeed Pro (C-Lock Inc.) controlled feeding units between 0900 and 1400 h daily. Cattle were removed from dietary treatments 39±19 days before calving. Two replicates were housed separately in the open-air barn (FIG. 1), each with a 1.2-ha paddock. Before and following the 70-d treatment period, all cattle were maintained as a single group free from toxic fescue.
(§4) Powdered melatonin (Cayman Chemical Company) was mixed into 100% ethanol and mixed with feed (fescue seed, corn gluten, and molasses) in a concrete mixer until the feed was dry (ethanol evaporates, and melatonin remains). Melatonin was dosed at about 100 μg/kg of body weight or about 50 mg/head/day for all groups. Ad libitum Bermuda grass hay was offered in an adjacent pasture area to encourage animals to leave the barn after consuming the feed ration during both the training and the feed trial period. After completion of the feed trial, heifers were maintained on fescue-free pastures at the Physiology Farm and supplemented as needed through calving and until their calves were weaned.
Calf body weight was recorded at birth, and calves were tagged for identification purposes. Blood samples were collected from calves at 12±2 days of age via jugular venipuncture (four 10 mL purple top tubes and one 4 mL purple top tube). At weaning, body weight was recorded, and blood samples were collected via jugular venipuncture (four 10 mL purple top tubes and one 4 mL purple top tube). Vaccinations were administered to calves according to normal procedures at the Savoy Unit. Heifers and calves were maintained according to standard procedures at the Savoy Unit and the Physiology Farm.
Calves were weaned at 226±19 d of age. Gestation length, calf birth weight, 205-day adjusted weaning weight (205-d WW), carcass ultrasonography measures (ribeye area, REA: REA/CWT), percent intramuscular fat (IMF), rib fat thickness (UFAT), rump fat thickness (URUMP), post-weaning weights (recorded every 28 days between weaning and 84 days post-weaning), and post-weaning average daily gain (ADG) (between weaning and 84 days post-weaning) were evaluated in offspring (n=44) (FIGS. 6-13). Post-weaning calf weights were analyzed using the MIXED procedure of SAS specific for repeated measures with treatment and time as fixed effects and replicate as random. […]

[3] = test system: offspring of dams that consumed endophyte-infected (E+) tall fescue seed; experiment: Example 1: body composition (carcass) ultrasonography of calves at weaning; format: in vivo, cattle
Description: as §3, §4
Calves were weaned at 226±19 d of age. Gestation length, calf birth weight, 205-day adjusted weaning weight (205-d WW), carcass ultrasonography measures (ribeye area, REA: REA/CWT), percent intramuscular fat (IMF), rib fat thickness (UFAT), rump fat thickness (URUMP), post-weaning weights (recorded every 28 days between weaning and 84 days post-weaning), and post-weaning average daily gain (ADG) (between weaning and 84 days post-weaning) were evaluated in offspring (n=44) (FIGS. 6-13). Post-weaning calf weights were analyzed using the MIXED procedure of SAS specific for repeated measures with treatment and time as fixed effects and replicate as random. All other variables were analyzed using the MIXED procedure of SAS with treatment as a fixed effect and replicate as random with gestation length as a covariate for birth weight. Table 1 summarizes the gestation length and body weights of calves born to primiparous dams that consumed E- or E+ fescue seed with (M) or without melatonin (NM) supplementation during mid-late gestation. Data in Tables 1 and 2 are presented as LS MEANS±SEM.

[4] = test system: pregnant beef cattle grazing toxic, endophyte-infected (E+) tall fescue; experiment: Example 2: color Doppler ultrasound of uterine and coccygeal artery hemodynamics; format: in vivo
Description: (§5) Multiparous crossbred cows were artificially inseminated with sex-sorted semen (Y chromosome-bearing sperm) from a single Angus sire and maintained on pastures free from E+ fescue prior to the start of the treatment period. Pregnant cows […] were assigned to one of three treatment groups based on body weight, with two replications per treatment: non-toxic, novel endophyte-infected (NE+) fescue without melatonin supplementation (NE+/NM; […]), E+ fescue with melatonin supplementation (E+/M; n=16), and E+ fescue without melatonin supplementation (E+/NM; n=18). Treatments were administered over a 70-d period between May and July (d 147±1 to 217±1 of gestation). A commercially available feed was mixed with or without melatonin [100 μg/kg body weight (BW)] and hand-fed daily.
Cows were weighed every fourteen (14) days relative to the start of the 70-d treatment period (FIG. 16-17): i.e., at d 0, 14, 28, 42, 56, and 70. Measurements of plasma prolactin were obtained on d 70 of the treatment period by radioimmunoassay (FIG. 18). Color Doppler ultrasound of the uterine and coccygeal artery was conducted at d 68±1 of the treatment period. Cardiac cycle waveforms from three independent ultrasound scans were used to determine the following uterine artery measures (FIGS. 19-25) and coccygeal artery measures (FIGS. 26-30): diameter (cm), pulsatility index (PI), resistance index (RI), blood flow (BF; mL/min; equal to MnV*vessel area*60 s), and blood flow as a proportion of BW (BF/BW).
(§6) After the treatment period, cattle were maintained together as a single group on pastures that were free from E+ fescue. Body weights were analyzed using the MIXED procedure of SAS specific for repeated measures with treatment, time, and the interaction as fixed effects and replicate as random. Arterial hemodynamics and prolactin measures were analyzed using the MIXED procedure of SAS with treatment as a fixed effect and replicate as a random effect. Ultrasonography day and order were tested as covariates and removed from the model (P<0.05).

[5] = test system: beef cows that grazed toxic, endophyte-infected tall fescue (E+) during gestation; experiment: Example 3: estimated daily milk volume and weight from four-hour milk yields; format: in vivo, cattle; details: d 56, P<0.03
Description: as §1, with “A commercially available feed was mixed with melatonin (100 μg/kg BW) or without melatonin and hand-fed to each cow daily. At the conclusion of the treatment period (56±18 d before parturition), cattle were moved to a single group and maintained on pastures free from E+ fescue, where they remained through weaning.” left out
After birth, calves were castrated within 48-72 hours. […] Protein, lactose, and triglycerides were evaluated in milk samples collected on d 28 and d 56.
as §2

[6] = test system: pregnant beef cattle grazing toxic, endophyte-infected (E+) tall fescue; experiment: Example 2: plasma prolactin by radioimmunoassay on d 70 of the treatment period; format: in vivo; details: cows on E+ fescue with melatonin 100 μg/kg BW, d 70 of treatment
Description: as §5
Cows were weighed every fourteen (14) days relative to the start of the 70-d treatment period (FIG. 16-17): i.e., at d 0, 14, 28, 42, 56, and 70. […]
as §6, with “Ultrasonography day and order were tested as covariates and removed from the model (P<0.05).” left out

[7] = calves, melatonin main-effect mean, dams 100 μg/kg BW for 70 d, LS mean
[8] = calves at weaning, melatonin main-effect mean, LS mean
[9] = cows on E+ fescue with melatonin, d 68±1 of treatment

SMILES: COc1ccc2[nH]cc(CCNC(C)=O)c2c1 [melatonin]
- Calf weight ([1]; Birth): 74.43 lbs.
- Calf weight ([1]; D 28): 148.07 lbs.
- Calf weight ([1]; D 56): 212.07 lbs.
- Calf weight ([1]; D 84): 278.46 lbs.
- Calf weight ([1]; D 112): 347.15 lbs.
- Calf weight ([1]; D 140): 409.15 lbs.
- Calf weight ([1]; D 168): 476.77 lbs.
- Calf weight ([1]; D 196): 535.31 lbs.
- Calf weight ([1]; D +28 Post-Weaning): 641.23 lbs.
- Calf weight ([1]; D +56 Post-Weaning): 703.69 lbs.
- Calf weight ([1]; D +84 Post-Weaning): 766.62 lbs.
- Calf weight ([1]; D +112 Post-Weaning): 852.92 lbs.
- Calf weight ([1]; Feedlot - October 29): 1003.33 lbs.
- Calf weight ([1]; Weaning): 622.31 lbs.
- share of the loss in calf weight recovered by feeding melatonin ([1]; second study, 28 days prior to weaning, loss 28 lbs., statistically adjusted means): over 65%
- calf weight recovered by feeding melatonin ([1]; second study, 28 days prior to weaning, multiparous cows, statistically adjusted means): approximately 19 lbs.
- calf weight at weaning recovered by feeding melatonin ([2]; Example 1, first-calf heifers, statistically adjusted means): approximately 53 lbs.
- share of the loss in calf weight at weaning recovered by feeding melatonin ([2]; Example 1, loss approximately 68 lbs., statistically adjusted means): over 75%
- birth weight of offspring, dams receiving melatonin relative to those without ([2]; P=0.02 as printed in text): increased
- 205-d WW (205-day adjusted weaning weight) [2, 7]: 176.95 kg
- Birth Weight [2, 7]: 25.90 kg
- 205-d weaning weight, toxic fescue seed with melatonin compared to toxic fescue seed without melatonin ([2]; fescue × melatonin interaction): increased
- post-weaning calf weight, toxic fescue seed with melatonin compared to toxic fescue seed without melatonin ([2]; fescue × melatonin interaction): increased
- Gestation Length ([2]; melatonin main-effect mean (E- and E+ diets pooled), 100 μg/kg BW in feed for 70 d mid-late gestation, LS mean): 272.00 days
- IMF (percent intramuscular fat) [3, 8]: 2.60%
- REA (ribeye area) [3, 8]: 5.87 in.^2
- UFAT (rib fat thickness) [3, 8]: 0.08 in.
- URUMP (rump fat thickness) [3, 8]: 0.08 in.
- ribeye area, toxic fescue seed with melatonin compared to toxic fescue seed without melatonin ([3]; fescue × melatonin interaction): increased
- Coccygeal artery PI (pulsatility index) [4, 9]: 0.86±0.1
- Coccygeal artery RI (resistance index) [4, 9]: 0.53±0.02
- effects on uterine and coccygeal artery hemodynamics ([4]; pregnant multiparous crossbred beef cows grazing endophyte-infected tall fescue): limited effects
- estimated daily milk volume relative to NE+/NM dams [5]: decreased
- estimated daily milk weight relative to NE+/NM dams [5]: decreased
- Prolactin (plasma) [6]: 86.9 ± 14.9 ng/mL
